Data taken from PubChem BioAssay AID2060484 (Molecular Pharmacology Branch, DTP, NCI, 2025).

System: SUM149PT spheroids with HUVEC/MSC, viability
Assay: Anticancer human tumor SUM149PT cell line growth inhibition [GQUAD];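 further: spheroids exposed to drugs for seven days before readout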;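 on viability, T/C: percent viability relative to DMSO vehicle control taken as 100%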
Conditions: for IC50: curve of first compound; for viability, T/C: stronger effect = lower value
Outline: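 Tumor cells were grown as complex spheroids with HUVEC endothelial cells and mesenchymal stem cells as stroma. G-quadruplex stabilizers were combined with targeted agents over half-log dilutions from near the clinical Cmax, or from 10 microM.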

[1] = second compound 0.0316 µM, first compound 0.0316 µM
[2] = second compound 0.0316 µM, first compound 0.316 µM
[3] = second compound 0.1 µM, first compound 0.0316 µM
[4] = second compound 0.1 µM, first compound 0.316 µM
[5] = second compound 0.316 µM, first compound 0.0316 µM
[6] = second compound 0.316 µM, first compound 0.316 µM
[7] = second compound 1 µM, first compound 0.0316 µM
[8] = second compound 1 µM, first compound 0.316 µM
[9] = second compound 3.16 µM, first compound 0.0316 µM
[10] = second compound 3.16 µM, first compound 0.316 µM
[11] = second compound 10 µM, first compound 0.0316 µM
[12] = second compound 10 µM, first compound 0.316 µM

## C=CC(=O)N1CCN(c2nc(=O)n(-c3c(C)ccnc3C(C)C)c3nc(-c4c(O)cccc4F)c(F)cc23)C(C)C1 (centres undefined) + Cc1[nH]c2ccc(F)cc2c1-c1nc2c3cccnc3c3ncccc3c2[nH]1
Second compound 0.0316 µM
  IC50: > 10000 nM
Second compound 0.1 µM
  IC50: > 10000 nM
Second compound 0.316 µM
  IC50: > 10000 nM
Second compound 1 µM
  IC50: > 10000 nM
Second compound 3.16 µM
  IC50: > 10000 nM
Second compound 10 µM
  IC50: > 10000 nM
[1]
  viability, T/C: 106%
Second compound 0.0316 µM, first compound 0.1 µM
  viability, T/C: 91.6%
[2]
  viability, T/C: 99.1%
Second compound 0.0316 µM, first compound 1 µM
  viability, T/C: 108%
Second compound 0.0316 µM, first compound 3.16 µM
  viability, T/C: 125%
Second compound 0.0316 µM, first compound 10 µM
  viability, T/C: 117%
[3]
  viability, T/C: 116%
Second compound 0.1 µM, first compound 0.1 µM
  viability, T/C: 93.8%
[4]
  viability, T/C: 111%
Second compound 0.1 µM, first compound 1 µM
  viability, T/C: 116%
Second compound 0.1 µM, first compound 3.16 µM
  viability, T/C: 124%
Second compound 0.1 µM, first compound 10 µM
  viability, T/C: 114%
[5]
  viability, T/C: 94.3%
Second compound 0.316 µM, first compound 0.1 µM
  viability, T/C: 107%
[6]
  viability, T/C: 95.6%
Second compound 0.316 µM, first compound 1 µM
  viability, T/C: 112%
Second compound 0.316 µM, first compound 3.16 µM
  viability, T/C: 122%
Second compound 0.316 µM, first compound 10 µM
  viability, T/C: 108%
[7]
  viability, T/C: 97.9%
Second compound 1 µM, first compound 0.1 µM
  viability, T/C: 97.6%
[8]
  viability, T/C: 112%
Second compound 1 µM, first compound 1 µM
  viability, T/C: 118%
Second compound 1 µM, first compound 3.16 µM
  viability, T/C: 120%
Second compound 1 µM, first compound 10 µM
  viability, T/C: 114%
[9]
  viability, T/C: 99.7%
Second compound 3.16 µM, first compound 0.1 µM
  viability, T/C: 86%
[10]
  viability, T/C: 102%
Second compound 3.16 µM, first compound 1 µM
  viability, T/C: 109%
Second compound 3.16 µM, first compound 3.16 µM
  viability, T/C: 115%
Second compound 3.16 µM, first compound 10 µM
  viability, T/C: 114%
[11]
  viability, T/C: 92%
Second compound 10 µM, first compound 0.1 µM
  viability, T/C: 80.6%
[12]
  viability, T/C: 100%
Second compound 10 µM, first compound 1 µM
  viability, T/C: 106%
Second compound 10 µM, first compound 3.16 µM
  viability, T/C: 111%
Second compound 10 µM, first compound 10 µM
  viability, T/C: 114%

## CC[C@@]1(O)C(=O)OCc2c1cc1n(c2=O)Cc2cc3c(CN(C)C)c(O)ccc3nc2-1 + Cc1[nH]c2ccc(F)cc2c1-c1nc2c3cccnc3c3ncccc3c2[nH]1
Second compound 0.0316 µM
  IC50: 85.2 nM
Second compound 0.1 µM
  IC50: 84.8 nM
Second compound 0.316 µM
  IC50: 80.2 nM
Second compound 1 µM
  IC50: 78.3 nM
Second compound 3.16 µM
  IC50: 85.7 nM
Second compound 10 µM
  IC50: 77.2 nM
Second compound 0.0316 µM, first compound 0.000999 µM
  viability, T/C: 103%
Second compound 0.0316 µM, first compound 0.00316 µM
  viability, T/C: 89.6%
Second compound 0.0316 µM, first compound 0.00999 µM
  viability, T/C: 107%
[1]
  viability, T/C: 85.2%
Second compound 0.0316 µM, first compound 0.0999 µM
  viability, T/C: 43.1%
[2]
  viability, T/C: 45.6%
Second compound 0.1 µM, first compound 0.000999 µM
  viability, T/C: 110%
Second compound 0.1 µM, first compound 0.00316 µM
  viability, T/C: 105%
Second compound 0.1 µM, first compound 0.00999 µM
  viability, T/C: 104%
[3]
  viability, T/C: 87.3%
Second compound 0.1 µM, first compound 0.0999 µM
  viability, T/C: 42.5%
[4]
  viability, T/C: 45.1%
Second compound 0.316 µM, first compound 0.000999 µM
  viability, T/C: 97.1%
Second compound 0.316 µM, first compound 0.00316 µM
  viability, T/C: 99.7%
Second compound 0.316 µM, first compound 0.00999 µM
  viability, T/C: 106%
[5]
  viability, T/C: 89%
Second compound 0.316 µM, first compound 0.0999 µM
  viability, T/C: 40.2%
[6]
  viability, T/C: 41.5%
Second compound 1 µM, first compound 0.000999 µM
  viability, T/C: 114%
Second compound 1 µM, first compound 0.00316 µM
  viability, T/C: 99.8%
Second compound 1 µM, first compound 0.00999 µM
  viability, T/C: 105%
[7]
  viability, T/C: 80.2%
Second compound 1 µM, first compound 0.0999 µM
  viability, T/C: 41.5%
[8]
  viability, T/C: 40.2%
Second compound 3.16 µM, first compound 0.000999 µM
  viability, T/C: 82.7%
Second compound 3.16 µM, first compound 0.00316 µM
  viability, T/C: 97.8%
Second compound 3.16 µM, first compound 0.00999 µM
  viability, T/C: 99%
[9]
  viability, T/C: 91.7%
Second compound 3.16 µM, first compound 0.0999 µM
  viability, T/C: 43.1%
[10]
  viability, T/C: 44.1%
Second compound 10 µM, first compound 0.000999 µM
  viability, T/C: 96.1%
Second compound 10 µM, first compound 0.00316 µM
  viability, T/C: 86.8%
Second compound 10 µM, first compound 0.00999 µM
  viability, T/C: 108%
[11]
  viability, T/C: 85.1%
Second compound 10 µM, first compound 0.0999 µM
  viability, T/C: 40.5%
[12]
  viability, T/C: 38.7%
